Assay results taken from patent US4725683A, “Fluorophenoxyphenoxypropionates and derivatives thereof” (The Dow Chemical Company, priority 1985, dated 1988).

Key:
Format in all cases: in vivo
[1] = test system: Barnyard Grass; assay: Preemergent activity; settings: Echinochloa crus-galli, pre-emergence, read-out: Preemergence Control; for pest or weed control at 70 g/ha: 0.07 kgs/hectare; for pest or weed control at 280 g/ha: 0.28 kgs/hectare
Outline: (§1)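 Test compound was dissolved in acetone at twice the final concentration, then mixed with an equal volume of water containing 0.1% w/w Tween-20. The resulting emulsion was sprayed uniformly at a predetermined rate onto sandy loam seed beds sown with each species. Controls received acetone–Tween-20–water only.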

[2] = test system: Wheat; assay: Preemergent activity; settings: Triticum aestivum, pre-emergence, read-out: Preemergence Control; for plant injury at 70 g/ha: 0.07 kgs/hectare; for plant injury at 280 g/ha: 0.28 kgs/hectare
Outline: as §1

[3] = test system: Wild Oats; assay: Preemergent activity; settings: Avena fatua, pre-emergence, read-out: Preemergence Control; for pest or weed control at 70 g/ha: 0.07 kgs/hectare; for pest or weed control at 280 g/ha: 0.28 kgs/hectare
Outline: as §1

[4] = test system: Johnson Grass; assay: Postemergent activity
Procedure: (§2) Representative compositions of the present invention were evaluated for the postemergence control of species of plants listed in Table A. In these evaluations, pots of the plant species listed in Table A, grown to a height of about 10 cms, were used. Aqueous spray compositions, containing various amounts of 2-[4-(2-fluoro-4-trifluoromethylphenoxy)-phenoxy]propionic acid methy ester, i.e., 125 ppm, 62.5 ppm, 31.25 ppm, 15.6 ppm, 7.8 ppm and 3.9 ppm, respectively, were applied to separate pots. The spray compositions were made by mixing the active ingredient in acetone to 1/2 the final volume, i.e., twice the final concentration. An equal amount of water was added to the active ingredient/acetone mixture wherein the water contained 0.1 percent by weight of TWEEN® 200 surfactant. The application to the plants was made to the point of run-off and was carried out with conventional spraying equipment. Other pots were sprayed with similar compositions containing no toxicant to serve as controls. Thereafter, the pots were maintained under conditions conducive for plant growth. Two weeks after treatment, the pots were examined for plant growth and evaluated on a scale of 0 to 100 where 0 represents no effect and 100 represents complete kill. The results of the examination of the treated pots are set forth below in Table A.

[5] = test system: cocklebur; assay: Postemergent activity; settings: 125 ppm
Procedure: as §2

[6] = test system: cotton; assay: Postemergent activity; settings: 125 ppm
Procedure: as §2

[7] = test system: jimson weed; assay: Postemergent activity; settings: 125 ppm
Procedure: as §2

[8] = test system: morning glory; assay: Postemergent activity; settings: 125 ppm
Procedure: as §2

[9] = test system: pigweed; assay: Postemergent activity; settings: 125 ppm
Procedure: as §2

[10] = test system: rape; assay: Postemergent activity; settings: 125 ppm
Procedure: as §2

[11] = test system: soybeans; assay: Postemergent activity; settings: 125 ppm
Procedure: as §2

[12] = test system: sugar beets; assay: Postemergent activity; settings: 125 ppm
Procedure: as §2

[13] = test system: velvet leaf; assay: Postemergent activity; settings: 125 ppm
Procedure: as §2

[14] = test system: cotton; assay: Preemergent activity; settings: 0.28 kgs/hectare, seeds
Procedure: (§3) In a representative operation, 2-[4-(2-fluoro-4-trifluoromethylphenoxy)phenoxy]propionic acid methyl ester, to be utilized in a series of tests, is dissolved in acetone to one half of the final volume (twice the final concentration) to be used and the acetone solution in each case is admixed with an equal volume of water containing 0.1 percent by weight of Tween-20 surface active material (Tween-20 is a trademark of Atlas Chemical Company). The composition, generally in the nature of an emulsion, was employed to treat separate respective seed beds of sandy loam soil of good nutrient content wherein each seed bed contained separate groups of good viable seeds, each group being of one of a known plant species. The various beds were positioned side by side and exposed to substantially identical conditions of temperature and light. Each bed was maintained so as to prevent any interaction with the test compound in different seed beds. Each seed bed was treated with the composition as a spray employing conventional spraying equipment to deposit a predetermined amount of the compound uniformly throughout the surface of the bed. Another seed bed was treated only with the acetone-Tween-20 water mixture with no chemical added to serve as a control. After treatment, the seed beds were maintained for two weeks under greenhouse conditions conducive for good plant growth and watered as necessary. Control refers to the reduction in growth of the test species in the presence of the test chemical relative to the observed growth of the same species in the absence of the test chemical.
(§4) Substantially the same procedures described in Example C were repeated using as the active ingredients

[15] = test system: jimson weed; assay: Preemergent activity; settings: 0.28 kgs/hectare, seeds
Procedure: as §3, §4

[16] = test system: pigweed; assay: Preemergent activity; settings: 0.28 kgs/hectare, seeds
Procedure: as §3, §4

[17] = test system: rape; assay: Preemergent activity; settings: 0.28 kgs/hectare, seeds
Procedure: as §3, §4

[18] = test system: soybean; assay: Preemergent activity; settings: 0.28 kgs/hectare, seeds
Procedure: as §3, §4

[19] = test system: sugarbeets; assay: Preemergent activity; settings: 0.28 kgs/hectare, seeds
Procedure: as §3, §4

[20] = test system: velvet leaf; assay: Preemergent activity; settings: 0.28 kgs/hectare, seeds
Procedure: as §3, §4

[21] = test system: yellow nutsedge; assay: Preemergent activity; settings: 0.28 kgs/hectare, seeds
Procedure: as §3, §4

With COC(=O)C(C)Oc1ccc(Oc2ccc(Cl)cc2F)cc1 (racemic) [Example 4-Chloro-, 2-[4-(4-chloro-2-fluorophenoxy)phenoxy]propionic acid methyl ester] the pest or weed control at 70 g/ha [1] was 40%, the pest or weed control at 140 g/ha ([1]; 0.14 kgs/hectare) was 98% and the pest or weed control at 280 g/ha [1] was 98%. The pest or weed control at 560 g/ha ([1]; 0.56 kgs/hectare) was 100%, the pest or weed control at 1120 g/ha ([1]; 1.12 kgs/hectare) was 100% and the plant injury at 70 g/ha [2] was 0%. It also gave a plant injury at 140 g/ha ([2]; 0.14 kgs/hectare) of 0%, a plant injury at 280 g/ha [2] of 0% and a plant injury at 560 g/ha ([2]; 0.56 kgs/hectare) of 0%. The plant injury at 1120 g/ha ([2]; 1.12 kgs/hectare) was 0%, the pest or weed control at 70 g/ha [3] was 0% and the pest or weed control at 140 g/ha ([3]; 0.14 kgs/hectare) was 0%. The pest or weed control at 280 g/ha [3] was 20%, the pest or weed control at 560 g/ha ([3]; 0.56 kgs/hectare) was 50% and the pest or weed control at 1120 g/ha ([3]; 1.12 kgs/hectare) was 70%.
COC(=O)C(C)Oc1ccc(Oc2ccc(C(F)(F)F)cc2F)cc1 (centres unmarked) [2-[4-(2-fluoro-4-trifluoromethylphenoxy)phenoxy]propionic acid methyl ester] was tested, and the “% Control” value ([4]; 3.9 ppm) was 60%, the “% Control” value ([4]; 7.8 ppm) was 100% and the “% Control” value ([4]; 15.6 ppm) was 100%. The “% Control” value ([4]; 31.25 ppm) was 100%, the “% Control” value ([4]; 62.5 ppm) was 100% and the “% Control” value ([4]; 125 ppm) was 100%. For the same compound, the phytotoxic effect [5] was “inactive”, the phytotoxic effect [6] was “inactive” and the phytotoxic effect [7] was “inactive”. The phytotoxic effect [8] was “inactive”, the phytotoxic effect [9] was “inactive” and the phytotoxic effect [10] was “inactive”. For the same compound, the phytotoxic effect [11] was “inactive”, the phytotoxic effect [12] was “inactive” and the phytotoxic effect [13] was “inactive”. It also gave a pest or weed control at 18 g/ha ([1]; 0.018 kgs/hectare) of 20%, a pest or weed control at 35 g/ha ([1]; 0.035 kgs/hectare) of 70% and a pest or weed control at 70 g/ha [1] of 80%. The pest or weed control at 114 g/ha ([1]; 0.114 kgs/hectare) was 100%, the pest or weed control at 280 g/ha [1] was 100% and the plant injury at 18 g/ha ([2]; 0.018 kgs/hectare) was 0%. It also gave a plant injury at 35 g/ha ([2]; 0.035 kgs/hectare) of 20%, a plant injury at 70 g/ha [2] of 90% and a plant injury at 114 g/ha ([2]; 0.114 kgs/hectare) of 100%. It also gave a plant injury at 280 g/ha [2] of 100%, a pest or weed control at 18 g/ha ([3]; 0.018 kgs/hectare) of 0% and a pest or weed control at 35 g/ha ([3]; 0.035 kgs/hectare) of 20%. It also gave a pest or weed control at 70 g/ha [3] of 90%, a pest or weed control at 114 g/ha ([3]; 0.114 kgs/hectare) of 100% and a pest or weed control at 280 g/ha [3] of 100%. The phytotoxic effect [14] was “inactive”, the phytotoxic effect [15] was “inactive” and the phytotoxic effect [16] was “inactive”. For the same compound, the phytotoxic effect [17] was “inactive”, the phytotoxic effect [18] was “inactive” and the phytotoxic effect [19] was “inactive”. For the same compound, the phytotoxic effect [20] was “inactive” and the phytotoxic effect [21] was “inactive”.
